{
  "source": "patent US20110158922A1",
  "about": "“Skin Care Compositions and Method of Use Thereof” (priority 2008, published 2011)",
  "origin": "cited, not measured here",
  "key": {"[1]": {"test_system": "skin cell energy production", "details": "topical application"}, "[2]": {"test_system": "collagen glycation", "details": "in vitro"}, "[3]": {"test_system": "synthesis of GAGs", "details": "in-vitro study"}, "[4]": {"test_system": "T-T dimmers in DNA, DNA repair, cell viability following UV exposure", "details": "in vitro"}},
  "note": "No end group written: not given here. *: point of attachment. Palmitoyl = CCCCCCCCCCCCCCCC(=O)*",
  "data": [
    {"molecule": "CN(CC(=O)O)C(=N)N", "note": "[creatine]", "values": [
      {"measurement": "skin cell energy production", "setting": "[1]", "value": "substantial improvement in skin cell energy production"}
    ]},
    {"molecule": "COc1ccc([C@@H]2CC(=O)c3c(O)cc(O[C@@H]4O[C@H](CO[C@@H]5O[C@@H](C)[C@H](O)[C@@H](O)[C@H]5O)[C@@H](O)[C@H](O)[C@H]4O)cc3O2)cc1O", "note": "[Hesperidin flavonoids, hesperidin]", "values": [
      {"measurement": "collagen glycation", "setting": "[2]", "value": "inhibit collagen glycation in vitro"}
    ]},
    {"molecule": "Palmitoyl-Lysysl-Threonyl-Threonyl-Lysyl-Serine (Palmitoyl-KTTKS) [Palmitoyl pentapeptide-4, peptide derived from a collagen precursor]", "values": [
      {"measurement": "synthesis of GAGs", "setting": "[3]", "value": "increase synthesis of GAGs"}
    ]},
    {"molecule": "ethylbisiminomethylguaiacol manganese chloride", "values": [
      {"measurement": "DNA repair", "setting": "[4]", "value": "stimulates DNA repair"},
      {"measurement": "cell viability following UV exposure", "setting": "[4]", "value": "increasing cell viability following UV exposure"},
      {"measurement": "formation of T-T dimmers in DNA", "setting": "[4]; UV exposure", "value": "reduces the formation of T-T dimmers in DNA"}
    ]}
  ]
}
